# “And” between values parts separate entries of the source, which are not always exact repeats. Equal values may be shown once. Read-outs that look alike come from different tables or passages of the source.
# Tests used:
# Alternaria solani = assay: Activity against early blight, microtiter test; type: cell-based; conditions: 7 days after inoculation; for Growth (%) at 0.000125 pm: comparative microtest Example 5; for Growth (%) at 0.5 pm: comparative microtest Example 2
# Fusarium culmorum = assay: Control of culm rot on pearl millet (comparative green house test); type: in vivo; conditions: pearl millet sprayed one day before inoculation, % diseased leaf area after 6 days
# Description: The spray solutions were prepared in several steps:
# The stock solution were prepared: a mixture of acetone and/or dimethylsulfoxide and the wetting agent/emulsifier Wettol, which is based on ethoxylated alkylphenoles, in a relation (volume) solvent-emulsifier of 99 to 1 was added to 25 mg of the compound to give a total of 5 ml.
# Water was then added to total volume of 100 ml.
# This stock solution was diluted with the described solvent-emulsifier-water mixture to the given concentration.
# Pot-grown pearl millet seedlings with 2-3 leaves were sprayed to run-off with an aqueous suspension of the compound prepared as described. The plants were allowed to air-dry. At the following day the plants were inoculated with an spore suspension of Fusarium culmorum in a 2% aqueous malt solution. Then the trial plants were immediately transferred to a humid chamber. After 6 days at 23-25° C. and a relative humidity close to 100% the extent of fungal attack on the leaves was visually assessed as % diseased leaf area.
# Pyricularia oryzae [1] = type: cell-based; conditions: 7 days after inoculation
# Septoria tritici [2] = assay: Preventative control of leaf blotch on wheat (comparative green house test); type: in vivo; conditions: % diseased leaf area after 4 weeks, untreated control 90
# Description: (§1) The spray solutions were prepared in several steps: The stock solution were prepared: a mixture of acetone and/or dimethylsulfoxide and the wetting agent/emulsifier Wettol, which is based on ethoxylated alkylphenoles, in a relation (volume) solvent-emulsifier of 99 to 1 was added to 25 mg of the compound to give a total of 5 ml. Water was then added to total volume of 100 ml. This stock solution was diluted with the described solvent-emulsifier-water mixture to the given concentration. Leaves of pot-grown wheat seedling were sprayed to run-off with an aqueous suspension of the active compound or their mixture, prepared as described. The plants were allowed to air-dry. At the following day the plants were inoculated with an aqueous spore suspension of Septoria tritici. […] After 4 days the plants were transferred to a chamber with 18-22° C. and a relative humidity close to 70%. After 4 weeks the extent of fungal attack on the leaves was visually assessed as % diseased leaf area.
# Pyrenophora teres = assay: Activity against net blotch on barley in the microtiter test; type: cell-based; conditions: comparative microtest Example 1, 7 days after inoculation
# Description: The stock solutions were mixed according to the ratio, pipetted onto a micro titer plate (MTP) and diluted with water to the stated concentrations. A spore suspension of Pyrenophora teres in an aqueous biomalt or yeast-bactopeptone-glycerine solution was then added. The plates were placed in a water vapor-saturated chamber at a temperature of 18° C. Using an absorption photometer, the MTPs were measured at 405 nm 7 days after the inoculation.
# Botrytis cinerea = assay: Activity against grey mold in the microtiterplate test; type: cell-based; conditions: 7 days after inoculation; for Growth (%) at 0.5 pm: comparative microtest Example 3
# Pyricularia oryzae [3] = type: in vivo; conditions: rice sprayed seven days before inoculation, % diseased leaf area after 6 days, untreated control 90
# Septoria tritici [4] = assay: Curative control of leaf blotch on wheat (comparative green house test); type: in vivo; conditions: wheat sprayed seven days after inoculation, % diseased leaf area after 4 weeks, untreated control 90
# Description: as §1, with “were” for “were sprayed to run-off with an aqueous suspension of the active compound or their mixture, prepared as described. The plants were allowed to air-dry. At the following day the plants were”, “70%. Seven days after inoculation the plants were sprayed to run-off with an aqueous suspension of the active compound or their mixture, prepared as described. Then the plants were transferred back to the chamber with 18-22° C. and a relative humidity close to 70%.” for “70%.”
# Leptosphaeria nodorum = assay: Activity against wheat leaf spots, microtiter test; type: cell-based; conditions: 32 ppm; 405 nm, 7 days after inoculation; compound-free control = 100%
# Phytophthora infestans = type: cell-based; conditions: 32 ppm; 405 nm, 7 days after inoculation; compound-free control = 100%
# Septoria tritici [5] = assay: Activity against leaf blotch on wheat, microtiter test; type: cell-based; conditions: 32 ppm; 405 nm, 7 days after inoculation; compound-free control = 100%
# [6] = comparative microtest Example 7
# [7] = comparative microtest Example 4
# [8] = 32 ppm, 405 nm, compound-free control = 100%
smiles,measurement,setting,value
OC(Cn1cncn1)(c1ccc(Oc2ccc(Cl)cc2)cc1Cl)C1CC1 (stereo not shown) [Compound I-9],Growth (%) at 0.000125 pm,Alternaria solani,1%
same,melting point,,110 °C
same,Disease (%) at 16 ppm,Fusarium culmorum; untreated control 90,5%
"OC(Cn1cncn1)c1ccc(Oc2ccc(Cl)cc2)cc1Cl (stereo not shown) [drawing 32, reference compound]",Disease (%) at 16 ppm,Fusarium culmorum; untreated control 90,30%
"CC(O)(Cn1cncn1)c1ccc(Oc2ccc(Cl)cc2)cc1Cl (stereo not shown) [drawing 21, reference compound]",Growth (%) at 0.5 pm,Pyricularia oryzae [1]; [6],82%
CC(F)C(O)(Cn1cncn1)c1ccc(Oc2ccc(Cl)cc2)cc1Cl (stereo not shown),Disease (%) at 150 ppm,Septoria tritici [2],50%
"CC(O)(Cn1cncn1)c1ccc(Oc2ccc(Cl)cc2)cc1Cl (stereo not shown) [drawing 17, reference compound]",Growth (%) at 0.000125 pm,Alternaria solani,45%
CC(O)(Cn1cncn1)c1ccc(Oc2ccc(Cl)cc2)cc1Cl (stereo not shown) [drawing 6],Growth (%) at 8 pm,Pyrenophora teres,62%
"CC#CC(O)(Cn1cncn1)c1ccc(Oc2ccc(Cl)cc2)cc1Cl (stereo not shown) [Compound I-8, 2-[2-chloro-4-(4-chlorophenoxy)phenyl]-1-(1,2,4-triazol-1-yl)pent-3-yn-2-ol]",melting point,,139 °C
"CC(O)(Cn1cncn1)c1ccc(Oc2ccc(Cl)cc2)cc1Cl (stereo not shown) [drawing 29, reference compound]",Disease (%) at 16 ppm,Fusarium culmorum; untreated control 90,25%
C=CC(O)(Cn1cncn1)c1ccc(Oc2ccc(Cl)cc2)cc1Cl (stereo not shown) [Compound I-10],Growth (%) at 0.5 pm,Alternaria solani,0%
same,melting point,,119 °C
same,Growth (%) at 0.5 pm,Botrytis cinerea,0%
"OC(Cn1cncn1)c1ccc(Oc2ccc(Cl)cc2)cc1Cl (stereo not shown) [drawing 27, reference compound]",Disease (%) at 250 ppm,Pyricularia oryzae [3],60%
"CCCC(Cn1cncn1)(OC)c1ccc(Oc2ccc(Cl)cc2)cc1Cl (stereo not shown) [drawing 15, reference compound]",Growth (%) at 0.5 pm,Pyricularia oryzae [1]; [7],30%
"OC(/C=C/c1ccccc1)(Cn1cncn1)c1ccc(Oc2ccc(Cl)cc2)cc1Cl (stereo not shown) [drawing 11, reference compound]",Growth (%) at 0.5 pm,Alternaria solani,91%
OC(Cn1cncn1)c1ccc(Oc2ccc(Cl)cc2)cc1Cl (stereo not shown) [drawing 24],Disease (%) at 150 ppm,Septoria tritici [2],60%
CCCC(Cn1cncn1)(OC)c1ccc(Oc2ccc(Cl)cc2)cc1Cl (stereo not shown) [drawing 9],Growth (%) at 8 pm,Pyrenophora teres,77%
"CCC(Cn1cncn1)(OC)c1ccc(Oc2ccc(Cl)cc2)cc1Cl (stereo not shown) [drawing 34, reference compound]",Disease (%) at 16 ppm,Septoria tritici [4],70%
CCC(Cn1cncn1)(OC)c1ccc(Oc2ccc(Cl)cc2)cc1Cl (stereo not shown) [drawing 7],Growth (%) at 8 pm,Pyrenophora teres,39%
"CCC(Cn1cncn1)(OC)c1ccc(Oc2ccc(Cl)cc2)cc1Cl (stereo not shown) [drawing 18, reference compound]",Growth (%) at 0.000125 pm,Alternaria solani,83%
"C#CCC(O)(Cn1cncn1)c1ccc(Oc2ccc(Cl)cc2)cc1Cl (stereo not shown) [Compound I-11, 2-[2-chloro-4-(4-chloro-phenoxy)-phenyl]-1-[1,2,4]triazol-1-yl-pent-4-yn-2-ol]",relative growth of the pathogen,Leptosphaeria nodorum,2%
same,relative growth of the pathogen,Alternaria solani; [8],2%
same,relative growth of the pathogen,Phytophthora infestans,12%
same,relative growth of the pathogen,Botrytis cinerea; [8],0%
same,relative growth of the pathogen,Pyricularia oryzae [1]; [8],0%
same,relative growth of the pathogen,Septoria tritici [5],9%
"OC(/C=C/c1ccccc1)(Cn1cncn1)c1ccc(Oc2ccc(Cl)cc2)cc1Cl (stereo not shown) [drawing 13, reference compound]",Growth (%) at 0.5 pm,Botrytis cinerea,77%
"CCCC(O)(Cn1cncn1)c1ccc(Oc2ccc(Cl)cc2)cc1Cl (stereo not shown) [Compound I-2, 2-[2-chloro-4-(4-chloro-phenoxy)-phenyl]-1-[1,2,4]triazol-1-yl-pentan-2-ol]",Growth (%) at 8 pm,Pyrenophora teres,57%
same,melting point,,132 to 135 °C
same,Growth (%) at 0.5 pm,Pyricularia oryzae [1]; [7],4%
"CCC(O)(Cn1cncn1)c1ccc(Oc2ccc(Cl)cc2)cc1Cl (stereo not shown) [Compound I-1, 2-[2-chloro-4-(4-chlorophenoxy)phenyl]-1-(1,2,4-triazol-1-yl)butan-2-ol]",Growth (%) at 8 pm,Pyrenophora teres,13%
same,Growth (%) at 0.000125 pm,Alternaria solani,1%
same,melting point,,140 to 142 °C
same,Disease (%) at 250 ppm,Pyricularia oryzae [3],20%
same,Disease (%) at 16 ppm,"Fusarium culmorum; untreated control 90, listed as Table 1, 1",0% and 1%
same,Disease (%) at 16 ppm,Septoria tritici [4],40%
same,Disease (%) at 150 ppm,Septoria tritici [2],10%
same,Growth (%) at 0.5 pm,Pyricularia oryzae [1]; [6],15%
"CCC(Cn1cncn1)(OC)c1ccc(Oc2ccc(Cl)cc2)cc1Cl (stereo not shown) [drawing 22, reference compound]",Growth (%) at 0.5 pm,Pyricularia oryzae [1]; [6],47%

# Reference: patent US9173402B2, “Fungicidal alkyl-substituted 2[2-chloro-4-(4-chioro-phenoxy)-phenyl]-1[1,2,4]triazol-1-yl-ethanol compounds” (BASF SE, priority 2011, dated 2015)
